The nature of the experiment: Inhibition of Staphylococcus aureus sortase A using Abz-LPETG-Dap(DNP)-NH2 as substrate preincubated for 1 hr followed by substrate addition by FRET assay.

Among the data in ChEMBL document CHEMBL3826962, “Synthesis, biological evaluation and molecular docking of 2-phenyl-benzo[d]oxazole-7-carboxamide derivatives as potential Staphylococcus aureus Sortase A inhibitors” (Bioorg Med Chem Lett, 2016) are IC50 values, retold here.

In general, IC50 refers to the concentration that gives 50% inhibition. Read a high IC50 as lower potency.

The compound `CC(C)CNC(=O)c1cccc2nc(-c3ccc(COC(=O)/C=C/c4ccc(O)cc4)cc3)oc12` had an IC50 of 87.4 µM.

Take `CC(C)CNC(=O)c1cccc2nc(-c3ccc(COC(=O)c4ccc([N+](=O)[O-])cc4)cc3)oc12`: the IC50 was found to be 159 µM. In the case of `CC(C)NC(=O)c1cccc2nc(-c3ccc(COC(=O)c4cccc(O)c4)cc3)oc12`, the concentration for half-maximal inhibition (IC50) turned out to be 144 µM.

Regarding `CC(C)CNC(=O)c1cccc2nc(-c3ccc(COC(=O)c4ccc(O)c(O)c4O)cc3)oc12`, half-maximal inhibition (IC50) required 19.8 µM. Compound `CC(C)NC(=O)c1cccc2nc(-c3ccc(COC(=O)c4ccc(O)cc4)cc3)oc12` returned an IC50 of 46.3 µM. In the case of `CCCCNC(=O)c1cccc2nc(-c3ccc(COC(=O)c4cccc(O)c4)cc3)oc12`, the IC50 is 161 µM. In the case of `CC(C)CNC(=O)c1cccc2nc(-c3ccc(COC(=O)c4ccc(O)cc4O)cc3)oc12`, the IC50 was determined as 22.4 µM. The compound `O=C(Cc1cccc(O)c1)OCc1ccc(-c2nc3ccccc3o2)cc1` had an IC50 of over 200 µM. `CC(C)NC(=O)c1cccc2nc(-c3ccc(COC(=O)Cc4ccc(O)cc4)cc3)oc12` had an IC50 of 116 µM.

In turn, `CCCCNCc1ccc(-c2nc3cccc(C(=O)NCC(C)C)c3o2)cc1` had an IC50 of 136 µM.

In turn, `CC(C)CNC(=O)c1cccc2nc(-c3ccc(CNCc4ccccc4)cc3)oc12` displayed a half-maximal inhibitory concentration (IC50) of 128 µM. `CC(C)NC(=O)c1cccc2nc(-c3ccc(COC(=O)Cc4ccc(O)c(O)c4)cc3)oc12`: the IC50 amounted to 74.8 µM.

`CCCCNC(=O)c1cccc2nc(-c3ccc(COC(=O)Cc4cccc(O)c4)cc3)oc12` came in with an IC50 of 177 µM. As for `CC(C)CNC(=O)c1cccc2nc(-c3ccc(COC(=O)Cc4ccc(O)c(O)c4)cc3)oc12`, the half-maximal inhibitory concentration (IC50) came to 64.4 µM. The figure for `O=C(OCc1ccc(-c2nc3ccccc3o2)cc1)c1ccc(O)cc1` is over 200 µM. `CCCCNC(=O)c1cccc2nc(-c3ccc(COC(=O)Cc4ccc(O)cc4)cc3)oc12` returned an IC50 of 181 µM. To `CC(C)CNC(=O)c1cccc2nc(-c3ccc(COC(=O)c4cccc(O)c4)cc3)oc12` belongs 26.1 µM.

Consider `CCCCNC(=O)c1cccc2nc(-c3ccc(COC(=O)c4ccc(O)cc4)cc3)oc12`, for which half-maximal inhibition (IC50) required 155 µM.

Consider `CC(C)CNC(=O)c1cccc2nc(-c3ccc(COC(=O)c4ccccc4[N+](=O)[O-])cc3)oc12`, for which the IC50 was 155 µM. For the compound `COc1cc(OC)cc(C(=O)OCc2ccc(-c3nc4cccc(C(=O)NCC(C)C)c4o3)cc2)c1`, half-maximal inhibition (IC50) required 24.8 µM. As to `CC(C)CNC(=O)c1cccc2nc(-c3ccc(COC(=O)Cc4cccc(O)c4)cc3)oc12`, 81.4 µM corresponded to half-maximal inhibition (IC50).

`CC(C)CNC(=O)c1cccc2nc(-c3ccc(COC(=O)c4ccccc4)cc3)oc12` showed an IC50 of 161 µM. To `CC(C)CNC(=O)c1cccc2nc(-c3ccc(COC(=O)Cc4ccc(O)cc4)cc3)oc12` belongs 73.2 µM; to `CC(C)CNC(=O)c1cccc2nc(-c3ccc(COC(=O)Cc4ccc([N+](=O)[O-])c(O)c4)cc3)oc12`, 87.4 µM. In turn, `CC(C)CNC(=O)c1cccc2nc(-c3ccc(COC(=O)c4ccc(O)c(O)c4)cc3)oc12` came in with an IC50 of 20.6 µM. To `COc1ccc(NCc2ccc(-c3nc4cccc(C(=O)NCC(C)C)c4o3)cc2)cc1` belongs 65.5 µM; to `O=C(Cc1ccc(O)c(O)c1)OCc1ccc(-c2nc3ccccc3o2)cc1`, over 200 µM. Turning to `CCCCNC(=O)c1cccc2nc(-c3ccc(COC(=O)/C=C/c4ccc(O)cc4)cc3)oc12`, the half-inhibitory concentration (IC50) turned out to be 184 µM.

As for `O=C(OCc1ccc(-c2nc3ccccc3o2)cc1)c1cccc(O)c1`, the concentration for half-maximal inhibition (IC50) is over 200 µM.
